Experiments:
[1] = biological target: T1, RORγ LBD-GST tagged (Homo sapiens, UniProt P51449); experiment: LanthaScreen TR-FRET RORγ coactivator assay; type: biochemical; details: Fluorescein-D22 coactivator peptide, 1 hour room temperature
T1 construct: RORγ LBD-GST tagged (Cat No. RORC-114H, Creative Biomart); purchased Creative Biomart RORC-114H
T1 sequence (P51449 269-508 limits assumed): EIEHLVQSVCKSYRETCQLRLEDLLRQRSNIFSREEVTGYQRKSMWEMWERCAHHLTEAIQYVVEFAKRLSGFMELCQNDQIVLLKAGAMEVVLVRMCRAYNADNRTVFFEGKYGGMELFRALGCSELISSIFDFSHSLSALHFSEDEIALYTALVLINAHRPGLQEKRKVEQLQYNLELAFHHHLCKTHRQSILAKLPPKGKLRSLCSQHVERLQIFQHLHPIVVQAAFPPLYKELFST
Summary of the method: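 GST-tagged RORγ LBD (25 ng/reaction) was incubated in coregulator buffer D with 5 mM DTT and compound (top 3 μM, 7-fold steps, 7 doses), then with a mix containing 0.6 μM fluorescein-D22 peptide and 8 nM Tb anti-GST antibody. After 1 h at room temperature in the dark, 520/495 nm TR-FRET was read. IC50 came from log concentration versus percent inhibition.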

[2] = tested on: IL-17 production, human PBMC cells; experiment: IL-17 production assay using human PBMC; type: cell-based; details: human PBMC stimulated by cytostim for 3 days, IL-17 ELISA of supernatant
Summary of the method: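 Cryopreserved human PBMCs, 1×10^5 per well in TexMACS, were treated with compound or vehicle (<0.5% DMSO) and stimulated with Cytostim (10 μL/mL) for 3 days at 37 °C. Supernatant IL-17 was measured by ELISA. IC50 was taken from concentration versus percent inhibition.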

IC50 [1] | SMILES | IC50 [2] | IC50 ([2]; Homo sapiens, PBMC, 72 h)
0.035 µM | CCS(=O)(=O)c1ccc(C(CCO)c2nc3c(Cl)c(N4CCC(F)(F)CC4)c(Cl)cc3[nH]2)cc1 (single isomer, unassigned) [the longer retention time of 139 and 140, 3-(4,6-dichloro-5-(4,4-difluoropiperidin-1-yl)-1H-benzo[d]imidazol-2-yl)-3-(4-(ethylsulfonyl)phenyl)propan-1-ol] | 0.026 µM | 
0.01 µM | CC(=O)NCCC(c1ccc(S(=O)(=O)CC2CC2)cc1)c1nc2cc(-c3ccccc3OC(F)F)c(Cl)cc2[nH]1 (single isomer, unassigned) [166 or 167 made from Int-164A, (R or S)—N-(3-(6-chloro-5-(2-(difluoromethoxy)phenyl)-1H-benzo[d]imidazol-2-yl)-3-(4-((cyclopropylmethyl)sulfonyl)phenyl)propyl)acetamide] |  | 0.066 µM
0.014 µM | O=S(=O)(CC1CC1)c1ccc(C(O)c2nc3c(Cl)c(-c4ccccc4OC(F)F)c(Cl)cc3[nH]2)c(F)c1 (stereo not drawn) [Example 100, (4-((cyclopropylmethyl)sulfonyl)-2-fluorophenyl)(4,6-dichloro-5-(2-(difluoromethoxy)phenyl)-1H-benzo[d]imidazol-2-yl)methanol] |  | 0.0013 µM
0.013 µM | CCS(=O)(=O)c1ccc(C(CO)c2nc3c(Cl)c(-c4ccccc4OCCOC)c(Cl)cc3[nH]2)cc1 (stereo not drawn) [Example 20, 2-(4,6-dichloro-5-(2-(2-methoxyethoxy)phenyl)-1H-benzo[d]imidazol-2-yl)-2-(4-(ethylsulfonyl)phenyl)ethanol] |  | 0.056 µM
0.059 µM | CCS(=O)(=O)c1ccc(Cc2nc3c(Cl)c(N4CCC(F)(F)CC4)c(Cl)cc3[nH]2)cc1 [Example 125, 4,6-dichloro-5-(4,4-difluoropiperidin-1-yl)-2-(4-(ethylsulfonyl)benzyl)-1H-benzo[d]imidazole] |  | 0.047 µM
0.048 µM | CS(=O)(=O)c1ccc(C(CO)c2nc3c(Cl)c(-c4ccccc4C(F)(F)F)c(Cl)cc3[nH]2)cc1 (stereo not drawn) [Example 46, 2-(4,6-dichloro-5-(2-(trifluoromethyl)phenyl)-1H-benzo[d]imidazol-2-yl)-2-(4-(methylsulfonyl)phenyl)ethanol] |  | 0.018 µM
0.049 µM | NC(=O)CC(c1ccc(S(=O)(=O)CC2CC2)cc1)c1nc2cc(Cl)c(N3CCC(F)(F)CC3)c(Cl)c2[nH]1 (stereo not drawn) [Example 154, 3-(4-((cyclopropylmethyl)sulfonyl)phenyl)-3-(5,7-dichloro-6-(4,4-difluoropiperidin-1-yl)-1H-benzo[d]imidazol-2-yl)propanamide] |  | 0.077 µM
0.013 µM | CCOc1ccccc1-c1c(Cl)cc2nc(C(CO)c3ccc(S(=O)(=O)CC4CC4)cc3)[nH]c2c1Cl (stereo not drawn) [Example 137, 2-(4-((cyclopropylmethyl)sulfonyl)phenyl)-2-(5,7-dichloro-6-(2-ethoxyphenyl)-1H-benzo[d]imidazol-2-yl)ethanol] |  | 0.004 µM
0.019 µM | CCS(=O)(=O)c1ccc(C(CO)c2nc3c(Cl)c(-c4ccccc4OC(F)F)c(Cl)cc3[nH]2)c(F)c1 (stereo not drawn) [Example 84, 2-(4,6-dichloro-5-(2-(difluoromethoxy)phenyl)-1H-benzo[d]imidazol-2-yl)-2-(4-(ethylsulfonyl)-2-fluorophenyl)ethanol] |  | 0.013 µM
0.074 µM | O=S(=O)(CC1CC1)c1ccc(C(CCO)c2nc3cc(-c4ccccc4OC(F)F)c(Cl)cc3[nH]2)cc1 (single isomer, unassigned) [the longer retention time of 155 and 156, 3-(6-chloro-5-(2-(difluoromethoxy)phenyl)-1H-benzo[d]imidazol-2-yl)-3-(4-((cyclopropylmethyl)sulfonyl)phenyl)propan-1-ol] | 0.026 µM | 
0.005 µM | CCOc1ccccc1-c1c(Cl)cc2nc(Cc3ccc(S(=O)(=O)CC4CC4)cc3)[nH]c2c1Cl [Example 136, 5,7-dichloro-2-(4-((cyclopropylmethyl)sulfonyl)benzyl)-6-(2-ethoxyphenyl)-1H-benzo[d]imidazole] |  | 0.014 µM
0.083 µM | CCS(=O)(=O)c1ccc(C(O)c2nc3c(Cl)c(-c4ccccc4OCCOC)c(Cl)cc3[nH]2)cc1 (stereo not drawn) [Example 21, (4,6-dichloro-5-(2-(2-methoxyethoxy)phenyl)-1H-benzo[d]imidazol-2-yl)(4-(ethylsulfonyl)phenyl)methanol] |  | 0.453 µM
0.135 µM | CCS(=O)(=O)c1ccc(C(CO)c2nc3cc(Cl)c(N4CCC(F)(F)CC4)c(Cl)c3[nH]2)cc1 (stereo not drawn) [Example 126, 2-(5,7-dichloro-6-(4,4-difluoropiperidin-1-yl)-1H-benzo[d]imidazol-2-yl)-2-(4-(ethylsulfonyl)phenyl)ethanol] |  | 0.008 µM
0.006 µM | O=S(=O)(CC1CC1)c1ccc(Cc2nc3c(Cl)c(-c4ccccc4OC(F)F)c(Cl)cc3[nH]2)cc1 [Example 72, 4,6-dichloro-2-(4-((cyclopropylmethyl)sulfonyl)benzyl)-5-(2-(difluoromethoxy)phenyl)-1H-benzo[d]imidazole] |  | 0.003 µM
0.007 µM | O=S(=O)(CC1CC1)c1ccc(C(CCO)c2nc3cc(Cl)c(N4CCC(F)(F)CC4)c(Cl)c3[nH]2)cc1 (stereo not drawn) [Example 157, 3-(4-((cyclopropylmethyl)sulfonyl)phenyl)-3-(5,7-dichloro-6-(4,4-difluoropiperidin-1-yl)-1H-benzo[d]imidazol-2-yl)propan-1-ol] |  | 0.022 µM
0.005 µM | NC(=O)CC(c1ccc(S(=O)(=O)CC2CC2)cc1)c1nc2cc(Cl)c(-c3ccccc3OC(F)F)c(Cl)c2[nH]1 (stereo not drawn) [Example 158, 3-(4-((cyclopropylmethyl)sulfonyl)phenyl)-3-(5,7-dichloro-6-(2-(difluoromethoxy)phenyl)-1H-benzo[d]imidazol-2-yl)propanamide] |  | 0.187 µM
0.007 µM | O=S(=O)(CC1CC1)c1ccc(Cc2nc3c(Cl)c(-c4ccccc4C(F)(F)F)c(Cl)cc3[nH]2)cc1 [Example 69, 4,6-dichloro-2-(4-((cyclopropylmethyl)sulfonyl)benzyl)-5-(2-(trifluoromethyl)phenyl)-1H-benzo[d]imidazole] |  | 0.056 µM
0.052 µM | CCS(=O)(=O)c1ccc(C(CO)c2nc3c(Cl)c(-c4ccccc4OCC(F)(F)F)c(Cl)cc3[nH]2)cc1 (stereo not drawn) [Example 32, 2-(4,6-dichloro-5-(2-(2,2,2-trifluoroethoxy)phenyl)-1H-benzo[d]imidazol-2-yl)-2-(4-(ethylsulfonyl)phenyl)ethanol] |  | 0.007 µM
0.068 µM | CCS(=O)(=O)c1ccc(C(CCO)c2nc3c(Cl)c(N4CCC(F)(F)CC4)c(Cl)cc3[nH]2)cc1 (stereo not drawn) [Example 145, 3-(4,6-dichloro-5-(4,4-difluoropiperidin-1-yl)-1H-benzo[d]imidazol-2-yl)-3-(4-(ethylsulfonyl)phenyl)propan-1-ol] |  | 0.01 µM
0.004 µM | CCS(=O)(=O)c1ccc(C(CC(N)=O)c2nc3c(Cl)c(N4CCC(F)(F)CC4)c(Cl)cc3[nH]2)cc1 (single isomer, unassigned) [the longer retention time of 146 and 147, 3-(4,6-dichloro-5-(4,4-difluoropiperidin-1-yl)-1H-benzo[d]imidazol-2-yl)-3-(4-(ethylsulfonyl)phenyl)propanamide] | 0.014 µM | 
0.31 µM | NC(=O)CC(c1ccc(S(=O)(=O)CC2CC2)cc1)c1nc2cc(Cl)c(N3CCC(F)(F)CC3)c(Cl)c2[nH]1 (single isomer, unassigned) [the longer retention time of 162 and 163, 3-(4-((cyclopropylmethyl)sulfonyl)phenyl)-3-(5,7-dichloro-6-(4,4-difluoropiperidin-1-yl)-1H-benzo[d]imidazol-2-yl)propanamide] | 0.029 µM | 
0.03 µM | O=S(=O)(CC1CC1)c1ccc(C(O)c2nc3c(Cl)c(-c4ccccc4OC(F)(F)F)c(Cl)cc3[nH]2)cc1 (stereo not drawn) [Example 68, (4-((cyclopropylmethyl)sulfonyl)phenyl)(4,6-dichloro-5-(2-(trifluoromethoxy)phenyl)-1H-benzo[d]imidazol-2-yl)methanol] |  | 0.004 µM
1.25 µM | O=S(=O)(CC1CC1)c1ccc(C(CCN2CCOCC2)c2nc3cc(-c4ccccc4OC(F)F)c(Cl)cc3[nH]2)cc1 (single isomer, unassigned) [164 or 165 made from Int-164A, (R or S)-4-(3-(6-chloro-5-(2-(difluoromethoxy)phenyl)-1H-benzo[d]imidazol-2-yl)-3-(4-((cyclopropylmethyl)sulfonyl)phenyl)propyl)morpholine] |  | 0.28 µM
0.675 µM | CCS(=O)(=O)c1ccc(Cc2nc3c(Cl)c(-c4ccccc4OCOC)c(Cl)cc3[nH]2)cc1 [Example 13, 4,6-dichloro-2-(4-(ethylsulfonyl)benzyl)-5-(2-(methoxymethoxy)phenyl)-1H-benzo[d]imidazole] |  | 0.082 µM

— patent publication US12187684B2, “Benzimidazole derivatives as modulators of retinoid-related orphan receptor gamma (RORγ) and pharmaceutical use thereof” (Jiangsu Hengrui Medicine Co., Ltd., priority 2018, dated 2025)
